The source of these data is publication PMC9603521, “WYBQ-4: a New Bactericidal Agent against Methicillin-Resistant Staphylococcus aureus” (Microbiology Spectrum, 2022).

In assay [1] the test system is methicillin-susceptible Staphylococcus epidermidis (MSSE) 35984. Put plainly: MIC by broth microdilution (CLSI). The format is cell-based. Background: In broth dilution the organism is exposed to a series of concentrations in liquid medium.
Assay [2] deals with MSSA 29213. Kind of assay: Mouse intramuscular (thigh) infection model. The format is in vivo. The following applies: MSSA 29213-infected mice; 300 mg/kg subcutaneous; 24 h after infection. As to the method:
(§1) The therapeutic effects of WYBQ-4 on thigh infections induced by MRSA USA300 and MSSA 29213 in mice (6-week-old female C57BL/6J mice) were evaluated. […] Mice were infected by intramuscular injection of 0.1 mL of S. aureus culture (5 × 10^5 CFU) into the right thigh. […] Then, 24 h after infection, mice were euthanized, and the right thighs were aseptically removed, weighed, homogenized, and applied to nonresistant BHI plates for CFU counting.

For assay [3], the system named is MRSA USA300. Put plainly: Mouse intramuscular (thigh) infection model. The format is in vivo. Conditions: MRSA USA300-infected mice; 300 mg/kg subcutaneous; 24 h after infection. How it is done:
as §1

The next assay relates to clinically isolated MRSA. Kind of assay: MIC against clinical isolates. Conditions: controls moxalactam and cefepime. Type of assay: cell-based, Staphylococcus aureus. How it is done: (§2) The clinical strains of MRSA and MSSA isolated in Beijing, Sichuan, and Shanghai in the last 3 years totaled more than 300 strains. Clinical isolates were stored at −80°C in 20% glycerol-rich brain heart infusion (BHI) and passaged twice on Trypticase soy agar prior to the experiment. Before the experiment, 16s RNA identification was performed, and then PCR was used to distinguish MRSA and MSSA by identifying the mecA gene. Furthermore, the MIC of cefoxitin against clinical isolates was tested again. The drug sensitivity results were judged according to the criteria established by the American Society for Clinical Laboratory Standardization. MRSA was determined by a cefoxitin MIC of ≥8 μg/mL ([36]). Finally, 100 strains each of MRSA and MSSA were randomly selected from the identified strains for subsequent experiments. All chemical reagents and antibiotics were purchased from Sigma (St. Louis, MO). S. aureus was grown at 30°C in BHI broth (Oxoid) with constant shaking or on BHI agar plates unless otherwise noted. […]
(§3) The antibacterial spectrum and susceptibility of WYBQ-4 against MRSA USA300, MSSA 29213, and clinically isolated S. aureus were determined using a broth microdilution method following the guidelines outlined by the Clinical and Laboratory Standards Institute (CLSI) ([37], [38]). […] The absorbance was measured at 600 nm, and experiments were repeated in three biological replicates.

Another assay relates to clinically isolated MSSA. Kind of assay: MIC against clinical isolates. The format is cell-based, Staphylococcus aureus. The following applies: controls moxalactam and cefepime. As to the method: as §2, §3
Assay [4] relates to methicillin-resistant Staphylococcus epidermidis (MRSE) 12228. Kind of assay: MIC by broth microdilution (CLSI). The format is cell-based.
A further assay relates to Gram-negative bacteria. Put plainly: MIC by broth microdilution (CLSI). Type of assay: cell-based. Conditions: compared to that against Staphylococcus.
The next assay deals with PBP2a (Staphylococcus aureus, UniProt P07944). Kind of assay: Dissociation equilibrium constant (Ks) by BOCILLIN FL method. Type of assay: binding, MRSA. As to the method: Α = A + ∆ε E (k∗ ∕ (k∗ + k∗)(1 − exp (−(k∗ + k∗)t)) + k N ∆ε Ε t (2)
Sequence of PBP2a (P07944 whole entry): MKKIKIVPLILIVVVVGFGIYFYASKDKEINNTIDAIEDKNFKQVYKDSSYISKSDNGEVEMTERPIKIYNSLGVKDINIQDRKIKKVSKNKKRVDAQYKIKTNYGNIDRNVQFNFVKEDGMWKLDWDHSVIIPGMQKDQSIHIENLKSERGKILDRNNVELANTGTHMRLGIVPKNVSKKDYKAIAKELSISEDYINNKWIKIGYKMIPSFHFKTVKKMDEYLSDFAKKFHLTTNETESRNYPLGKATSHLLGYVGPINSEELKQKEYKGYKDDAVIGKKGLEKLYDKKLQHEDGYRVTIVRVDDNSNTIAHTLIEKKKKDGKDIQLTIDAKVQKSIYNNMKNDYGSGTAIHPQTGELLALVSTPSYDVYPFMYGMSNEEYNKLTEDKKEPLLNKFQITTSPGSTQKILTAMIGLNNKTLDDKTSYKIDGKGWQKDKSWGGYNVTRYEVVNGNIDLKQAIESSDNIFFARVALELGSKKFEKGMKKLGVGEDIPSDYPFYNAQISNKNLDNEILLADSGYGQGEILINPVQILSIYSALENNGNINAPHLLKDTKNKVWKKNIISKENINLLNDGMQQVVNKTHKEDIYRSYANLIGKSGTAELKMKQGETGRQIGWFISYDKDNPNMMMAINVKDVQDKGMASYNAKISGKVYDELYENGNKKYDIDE
Where kn* is the pseudo-first-order rate constant for acylation by nitrocefin at the concentration (N0) employed (0.1 mM), ki* the pseudo-first-order rate constant for the reaction of PBP2a with the WYBQ-4, E0 the initial enzyme concentration (2.5 µM), and k0 the second-order rate constant of nonspecific nitrocefin hydrolysis. Second-order rate constants (ki) for acylation were calculated from a linear least-squares fit to a plot of the apparent first-order rate constants (ki*) against the concentration of WYBQ-4. All plots were linear for the concentrations of WYBQ-4 used.
Determination of dissociation equilibrium constants (Ks) of WYBQ-4 and PBP2a The dissociation equilibrium constant (Ks) of PBP2a with WYBQ-4 were determined by the BOCILLIN method (2), as previously described. […] Samples (30 μL) were loaded onto a 10% SDS-polyacrylamide gel, which was developed and then observed using a fluorescence imager to calculate the grayscale curve. […]
The deacylation rate constants for wild-type PBP2a were determined using BOCILLIN FL as a reporter molecule. […]
The mixture was diluted 5 times with buffer and incubated at room temperature for different time intervals. […] Grayscale analysis was performed by imageJ and the rate constant k3 for the deacylation reaction of WYBQ-4 with PBP2a was determined based on eqn (3): […]

For assay [5], the system named is MSSA 29213. Put plainly: Time-kill curve. Conditions: 4× MIC, at 9 h. Type of assay: cell-based, Staphylococcus aureus. As to the method: (§4) The bactericidal activities of WYBQ-4 against MSSA 29213 and MRSA USA300 were determined in vitro. Overnight cultures were diluted to 10^6 CFU (CFU)/mL in 10 mL of fresh Mueller-Hinton broth (MHB) medium. […] After incubation at 37°C with shaking for 0 to 24 h, 100-μL samples from each time point were subcultured on MHB agar plates and incubated at 37°C for 24 h. MSSA 29213 and MRSA USA300 without WYBQ-4 were used as control groups. Colony numbers were counted to calculate the CFU, and the data were expressed as log10 CFU. Three biological replicates were performed for the experiment.

Assay [6] deals with MRSA USA300. Put plainly: Time-kill curve. Type of assay: cell-based, Staphylococcus aureus. Conditions: 8× MIC, at 9 h. How it is done: as §4

≈ marks a conversion by molar mass, not a printed value.

In the case of `C#CCO[C@@]1(NC(=O)CSc2cccc(C)c2)C(=O)N2C(C(=O)O)=C(CSc3nnnn3C)CSC21` (stereo partly shown) [WYBQ-4], the MIC in assay [1] is 0.5 µg/mL (≈ 0.915 µM); in assay [4] it was 4 µg/mL (≈ 7.32 µM). Also, the “bacterial load in the thighs” value turned out to be 5.21 log10 CFU/g with MSSA 29213 [2] and 5.97 log10 CFU/g with MRSA USA300 [3]. Besides, the “bacteriostatic activity (MIC) versus control drugs” value in the assay on clinically isolated MRSA and with clinically isolated MSSA was “better bacteriostatic activity than the control drugs” throughout. Also, the antibacterial activity entry in the assay on Gram-negative bacteria is recorded as “weak”. This molecule also showed a Kd on PBP2a of 28 ± 1.24 µM. In addition, the time-dependent killing effect entry in the assay with MSSA 29213 [5] and in the assay on MRSA USA300 [6] was “complete sterilization” each time.

Broadly, the MIC is the smallest concentration in the dilution series that meets the test's criterion for growth inhibition. Low readings indicate greater potency, high ones weaker potency. What is called Kd is the free concentration of one partner at which half of the binding sites on the other are occupied at equilibrium, for simple one-to-one binding. A high value points to a looser complex.
